Experiments:
PC-3 cells [1] = assay: Cell death by annexin V and PI staining, flow cytometry; type: cell-based, human; details: 48 hr, free IPA-3 20-30 μM
LNCaP cells = assay: In vitro cytotoxicity, MTT staining; type: cell-based; details: Homo sapiens
Experimental: (§1) The human prostate cancer cell lines PC-3, LNCaP and DU-145 and the breast cancer cell lines MCF-7 and MDA-231 were purchased from ATCC (Manassas, Va.). PC-3, LNCaP, and DU-145 cells were cultured in F12K, RPMI, and EMEM, respectively. MCF-7 and MDA-231 cells were cultured in RPMI. All culture media were supplemented with 10% FBS and 1% penicillin/streptomycin antibiotics (ATCC). All the cells were maintained at 37° C. in incubators with 5% CO2 and humidified atmosphere.
(§2) The cytotoxicity of the liposomal IPA-3 as well as the free IPA-3 was determined in three prostate cancer cell lines (PC-3, LNCaP, and DU-145) using the MTT assay (Twentyman, et al., Br J Cancer. 1987; 56: 279-85). Free IPA-3 and SSL-IPA-3 were used for comparison. Cells were seeded in 48-well tissue culture plates at 5×10^4 cells/ml and incubated at 37° C. in a 5% CO2 incubator for 24 hr. This time was sufficient for the cells to attach and resume their growth. Liposomes were diluted in the different culture media to their final concentrations and experiments were performed in triplicates. […] Plates were shaken for 15 min and absorbance was read at 590 nm using a Spectra Max M2 plate reader (BMG Lab Technologies, Inc., Durham, NC). […]

PC-3 cells [2] = assay: In vitro cytotoxicity, MTT staining; type: cell-based; details: Homo sapiens
Experimental: as §1, §2

[3] = system: PC-3 cell tumor xenografts; assay: In vivo prostate tumor xenograft growth; set-up: species or system athymic nude mice; details: 5 mg/kg i.p., 2 days/week, from day 7 to day 25
Experimental: (§3) All animal procedures listed in this article were performed as per the protocol approved by the Institutional Animal Care and Use Committee at the Charlie Norwood Veterans Affairs Medical Center, Augusta, GA (protocol #12-06-049). PC-3 cells were grown to 60-70% confluent in 225-ml flasks. Next, cells were collected and suspended in sterile normal saline. Cell suspension (3 million cells//mouse) was injected subcutaneously (SC) in 6-8-weeks-old male athymic nude mice (Harlan, Indianapolis, IN) (n=5-6). All the treatments (DMSO, empty liposomes, free IPA-3 (5 mg/Kg), and SSL-IPA-3 (5 mg/kg) were started on day 7 from tumor implantation, and were administered two times a week (i.p.). Tumor diameters were measured with digital calipers on day 7, 14, 21, and 25, and the tumor volume in mm^3 were calculated by the modified ellipsoidal formula (Tumor volume=½[length×width^2]). Average size of the tumors prior to the treatment with free IPA-3 and SSL-IPA-3 were 42 mm^3. Mice were sacrificed on day 25 and tumors were dissected, weighed, and snap-frozen for further immunohistochemistry analysis.

[4] = Body weight of tumor bearing mice; type: in vivo, athymic nude mice; details: 5 mg/kg i.p., 2 days/week; after 25 days
Experimental: as §3

[5] = system: PC-3 cell tumor xenografts; details: daily administration (Al-Azayzih et al. 2015); cited from earlier work
[6] = free form (Rudolph et al. 2015); cited from earlier work
DU-145 cells = assay: In vitro cytotoxicity, MTT staining; type: cell-based, human
Experimental: as §1, §2

[7] = system: PC-3 cell prostate tumor xenografts; assay: TUNEL assay of apoptosis in tumor xenograft sections; type: in vivo, athymic nude mice; details: 5 mg/kg i.p., 2 days/week; day 25
Experimental: as §3
The TUNEL assay for in situ detection of apoptosis was performed using the ApopTag® Fluorescein in situ Apoptosis detection kit (Millipore, MA) as described previously8. Frozen sections taken from prostate tumor xenografts were fixed in 2% paraformaldehyde at 4° C. for 30 min. […]

MDA-231 cells = assay: In vitro cytotoxicity, MTT staining; type: cell-based; details: Homo sapiens, MDA-MB-231
MCF-7 cells = assay: In vitro cytotoxicity, MTT staining; type: cell-based; details: Homo sapiens, MCF7
[8] = system: human prostate cancer cell lines PC-3, LNCaP and DU-145; assay: In vitro cytotoxicity, MTT staining, across the prostate cancer cell lines; type: cell-based
Experimental: as §1, §2

Oc1ccc2ccccc2c1SSc1c(O)ccc2ccccc12 [IPA-3, 1,1′-Dithiodi-2-naphthtol]
percent of cells staining positive for annexin V alone (PC-3 cells [1]): significantly increased
percent of cells staining positive for both annexin V and PI (PC-3 cells [1]): significantly increased
IC50 (LNCaP cells): 10 µM
IC50 (PC-3 cells [2]): 12 µM
PC-3 cell tumor xenograft growth [3]: did not have a significant effect
effect on body weight of mice [4]: no significant effect
prostate tumor xenograft growth [5]: reduced prostate tumor xenograft growth
half-life in vivo [6]: very short half-life
susceptibility of DU-145 cells compared to PC-3 and LNCaP cells (DU-145 cells): less susceptible
IC50 (DU-145 cells; Homo sapiens, DU-145, DU-145): ~32 µM
number of apoptotic (TUNEL positive) cells per field compared to control groups [7]: significant increases
IC50 (MDA-231 cells): 8 µM
IC50 (MCF-7 cells): 25 µM
IC50 ([8]; Homo sapiens, depending on the cell line, MTT staining): 10 to 35 µM
effect on MTT staining ([8]; concentrations of 5-30 μM, 24, 48, 72 hrs): concentration-and time-dependent decreases in MTT staining

From patent publication US11969396B2, “IPA-3-loaded liposomes and methods of use thereof” (University of Georgia Research Foundation, Inc., priority 2016, dated 2024)
